Reference: the NIST ThermoML archive (doi:10.1016/j.jct.2016.07.012)

Assay: molar heat capacity at constant pressure
Conditions: 101.33 kPa, Small (less than 1 g) adiabatic calorimetry

CCCCn1cc[n+](C)c1.F[P-](F)(F)(F)(F)F [1-butyl-3-methylimidazolium hexafluorophosphate]
Conditions	molar heat capacity at constant pressure [J/K/mol]
125.32 K, Metastable crystal	185.9
127.15 K, Metastable crystal	191.2
127.23 K, Metastable crystal	188.2
129.05 K, Metastable crystal	193.4
129.15 K, Metastable crystal	190.5
130.95 K, Metastable crystal	195.6
131.06 K, Metastable crystal	192.8
132.85 K, Metastable crystal	197.9
132.97 K, Metastable crystal	195.1
134.75 K, Metastable crystal	200.2
134.88 K, Metastable crystal	197.5
136.65 K, Metastable crystal	202.5
136.8 K, Metastable crystal	199.9
138.55 K, Metastable crystal	204.9
138.71 K, Metastable crystal	202.4
140.45 K, Metastable crystal	207.2
140.62 K, Metastable crystal	204.8
142.35 K, Metastable crystal	209.7
142.52 K, Metastable crystal	207.4
144.24 K, Metastable crystal	212.3
144.42 K, Metastable crystal	209.9
146.13 K, Metastable crystal	214.9
146.33 K, Metastable crystal	212.5
148.01 K, Metastable crystal	217.6
148.23 K, Metastable crystal	215.1
149.9 K, Metastable crystal	220.4
150.13 K, Metastable crystal	217.7
151.78 K, Metastable crystal	223.4
152.02 K, Metastable crystal	220.4
153.65 K, Metastable crystal	226.5
153.91 K, Metastable crystal	223.1
155.52 K, Metastable crystal	229.7
155.79 K, Metastable crystal	225.9
157.39 K, Metastable crystal	233.2
157.67 K, Metastable crystal	228.7
159.24 K, Metastable crystal	236.9
159.55 K, Metastable crystal	231.5
161.09 K, Metastable crystal	241
161.42 K, Metastable crystal	234.4
162.93 K, Metastable crystal	245.5
163.29 K, Metastable crystal	237.3
164.76 K, Metastable crystal	250.5
165.15 K, Metastable crystal	240.3
166.58 K, Metastable crystal	256.4
167.01 K, Metastable crystal	243.2
168.38 K, Metastable crystal	263.5
168.87 K, Metastable crystal	246.3
170.16 K, Metastable crystal	272.5
170.71 K, Metastable crystal	249.4
171.91 K, Metastable crystal	285.3
172.55 K, Metastable crystal	252.6
173.61 K, Metastable crystal	306.7
174.39 K, Metastable crystal	256.1
175.22 K, Metastable crystal	360.5
176.22 K, Metastable crystal	258.9
176.68 K, Metastable crystal	448.8
178.04 K, Metastable crystal	260.8
178.27 K, Metastable crystal	265.8
179.86 K, Metastable crystal	263.5
180.09 K, Metastable crystal	261.1
181.68 K, Metastable crystal	266.1
181.91 K, Metastable crystal	261.4
183.5 K, Metastable crystal	268.6
183.75 K, Metastable crystal	262.7
185.31 K, Metastable crystal	270.9
185.58 K, Metastable crystal	264.6
187.12 K, Metastable crystal	273
187.4 K, Metastable crystal	266.8
188.92 K, Metastable crystal	274.8
189.22 K, Metastable crystal	269.2
190.72 K, Metastable crystal	276.4
191.04 K, Metastable crystal	271.8
192.53 K, Metastable crystal	277.7
192.86 K, Metastable crystal	274.6
194.33 K, Metastable crystal	278.7
194.66 K, Metastable crystal	277.6
196.13 K, Metastable crystal	279.3
196.47 K, Metastable crystal	280.8
197.94 K, Metastable crystal	279.8
198.27 K, Metastable crystal	284.1
199.74 K, Metastable crystal	280
200.05 K, Metastable crystal	287.7
201.61 K, Metastable crystal	280.4
201.89 K, Metastable crystal	291.8
203.54 K, Metastable crystal	280.7
203.78 K, Metastable crystal	296.2
205.47 K, Metastable crystal	281
205.65 K, Metastable crystal	301.3
207.4 K, Metastable crystal	281.3
207.51 K, Metastable crystal	306.9
209.34 K, Metastable crystal	281.8
209.36 K, Metastable crystal	313.5
211.19 K, Metastable crystal	322.6
211.28 K, Metastable crystal	282.5
213 K, Metastable crystal	333.5
213.22 K, Metastable crystal	283.4
214.77 K, Metastable crystal	351.9
215.16 K, Metastable crystal	284.4
216.47 K, Metastable crystal	395.3
217.1 K, Metastable crystal	285.1
218.22 K, Metastable crystal	317.7
219.04 K, Metastable crystal	285.7
220.12 K, Metastable crystal	285.9
220.98 K, Metastable crystal	286.7
222.07 K, Metastable crystal	286.7
222.93 K, Metastable crystal	287.8
224.04 K, Metastable crystal	287.5
224.86 K, Metastable crystal	288.7
226.9 K, Metastable crystal	290
228.84 K, Metastable crystal	291.1
230.78 K, Metastable crystal	292
232.72 K, Metastable crystal	293
234.67 K, Metastable crystal	294.1
236.61 K, Metastable crystal	295.2
238.55 K, Metastable crystal	296.3
240.49 K, Metastable crystal	298.3
242.43 K, Metastable crystal	299.6
286.27 K, Liquid	400.3
287.99 K, Liquid	401.2
289.7 K, Liquid	402.1
291.41 K, Liquid	403
293.12 K, Liquid	404
294.83 K, Liquid	405.1
296.54 K, Liquid	405.8
298.25 K, Liquid	406.9
299.96 K, Liquid	407.8
301.71 K, Liquid	409.1
303.52 K, Liquid	410.1
305.33 K, Liquid	411
307.14 K, Liquid	412
308.95 K, Liquid	412.9
310.75 K, Liquid	414
312.56 K, Liquid	415.1
314.36 K, Liquid	415.8
316.16 K, Liquid	417
317.97 K, Liquid	418
319.77 K, Liquid	419.2
321.57 K, Liquid	420.1
323.38 K, Liquid	421
325.18 K, Liquid	422
326.98 K, Liquid	423.2
328.78 K, Liquid	423.9
330.59 K, Liquid	425
332.39 K, Liquid	426.1
334.19 K, Liquid	427.2
335.99 K, Liquid	428.2
337.79 K, Liquid	429.2
339.59 K, Liquid	430.2
341.39 K, Liquid	431.1
343.18 K, Liquid	432.1
344.98 K, Liquid	433.1
346.78 K, Liquid	434.1
348.58 K, Liquid	435.2
350.38 K, Liquid	436.3
352.18 K, Liquid	437.4
353.99 K, Liquid	438.3
355.79 K, Liquid	439.3
357.59 K, Liquid	440.3
359.4 K, Liquid	441.1
361.2 K, Liquid	442.4
363 K, Liquid	443.4
364.81 K, Liquid	444.5
366.61 K, Liquid	445.6
368.41 K, Liquid	446.3
